According to the supplement of paper PMC10307832:

Assays:
Assay in all cases: relative viability (nuclei count vs DMSO), 5 days (fraction); higher = more cells survive
[1] = compound: NCC(=O)Nc1ccc(-n2nc(C(F)(F)F)cc2-c2ccc3c(ccc4ccccc43)c2)cc1 + Cc1cc(Nc2cc(N3CCN(C)CC3)nc(Sc3ccc(NC(=O)C4CC4)cc3)n2)n[nH]1 [Tozasertib] (partner 0.1 µM)
Procedure, shortened: (§1)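 Medians of duplicate plates are given as relative viability. That measure is the nuclei count in treated wells divided by the count in vehicle wells. Counts were taken on 4× images of lung cancer cell lines in 1536-well plates, 5 days after pin-tool dosing the day after seeding with one drug alone or a fixed anchor-drug dose plus five library-drug doses (not always all listed) in √10 steps.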

[2] = compound: NCC(=O)Nc1ccc(-n2nc(C(F)(F)F)cc2-c2ccc3c(ccc4ccccc43)c2)cc1 + COc1cc2c(Oc3ccc(NC(=O)C4(C(=O)Nc5ccc(F)cc5)CC4)cc3F)ccnc2cc1OCCCN1CCOCC1 [Foretinib] (partner 0.25 µM)
Procedure, shortened: as §1

[3] = compound: C1CSC2=C(C(=O)N1)SC3=C2C=C(C=C3)O [kb NB 142-70] + Nc1nc2[nH]cc(CCc3ccc(C(=O)N[C@@H](CCC(=O)O)C(=O)O)cc3)c2c(=O)[nH]1 [Pemetrexed] (partner 0.2 µM)
Procedure, shortened: as §1

[4] = compound: NCC(=O)Nc1ccc(-n2nc(C(F)(F)F)cc2-c2ccc3c(ccc4ccccc43)c2)cc1 + Nc1nc2[nH]cc(CCc3ccc(C(=O)N[C@@H](CCC(=O)O)C(=O)O)cc3)c2c(=O)[nH]1 [Pemetrexed] (partner 0.2 µM)
Procedure, shortened: as §1

Row | Cell Line | relative viability ([1]; first compound 0.02 µM) | relative viability ([1]; first compound 0.06325 µM) | relative viability ([1]; first compound 0.2 µM) | relative viability ([1]; first compound 0.6325 µM) | relative viability ([1]; first compound 2 µM) | relative viability ([2]; first compound 0.02 µM) | relative viability ([2]; first compound 0.06325 µM) | relative viability ([2]; first compound 0.2 µM) | relative viability ([2]; first compound 0.6325 µM) | relative viability ([2]; first compound 2 µM) | relative viability ([3]; first compound 0.1 µM) | relative viability ([3]; first compound 1 µM) | relative viability ([3]; first compound 3.162 µM) | relative viability ([4]; first compound 0.02 µM) | relative viability ([4]; first compound 0.06325 µM) | relative viability ([4]; first compound 0.2 µM) | relative viability ([4]; first compound 0.6325 µM) | relative viability ([4]; first compound 2 µM)
1 | NCI-H1395 | 0.724 | 0.75 | 0.778 | 0.794 | 0.706 | 1.12 | 1.01 | 1.07 | 1 | 0.981 | 0.915 | 0.872 | 0.833 | 0.876 | 0.896 | 0.969 | 0.8 | 0.894
2 | NCI-H2126 | 0.842 | 0.892 | 0.874 | 0.864 | 0.852 | 1.23 | 1.1 | 1.3 | 1.08 | 1.11 | 0.666 | 0.702 | 0.762 | 0.667 | 0.714 | 0.736 | 0.724 | 0.69
3 | LXF-289 | 0.233 | 0.196 | 0.202 | 0.214 | 0.197 | 0.973 | 0.979 | 0.967 | 0.943 | 0.968 | 0.86 | 0.989 | 0.715 | 0.913 | 0.956 | 0.914 | 0.926 | 0.767
4 | NCI-H2009 | 0.821 | 0.715 | 0.772 | 0.692 | 0.653 | 1.27 | 1.19 | 1.38 | 1.14 | 1.25 | 1.05 | 1.09 | 0.977 | 1.03 | 1.01 | 1.08 | 1.05 | 1.04
5 | NCI-H2405 | 0.745 | 0.853 | 0.779 | 0.733 | 0.868 | 1.12 | 1.07 | 1.13 | 1.03 | 1.11 | 1.11 | 0.995 | 0.523 | 1.04 | 1.04 | 1.26 | 1.04 | 1.16
6 | NCI-H1755 | 0.626 | 0.596 | 0.6 | 0.591 | 0.555 | 0.928 | 0.882 | 0.947 | 0.921 | 0.905 | 0.43 | 0.403 | 0.519 | 0.69 | 0.509 | 0.453 | 0.394 | 0.434
7 | HCC-78 | 0.408 | 0.415 | 0.501 | 0.403 | 0.411 | 0.551 | 0.565 | 0.52 | 0.577 | 0.621 | 0.896 | 0.907 | 0.899 | 0.977 | 0.894 | 0.884 | 0.903 | 0.89
8 | LOU-NH91 | 0.621 | 0.716 | 0.649 | 0.663 | 0.797 | 0.994 | 0.959 | 0.965 | 0.929 | 1.01 | 0.432 | 0.462 | 0.386 | 0.356 | 0.393 | 0.375 | 0.389 | 0.34
9 | NCI-H3122 | 0.412 | 0.431 | 0.391 | 0.366 | 0.236 | 0.973 | 0.906 | 1.01 | 0.962 | 0.888 | 0.2 | 0.21 | 0.289 | 0.194 | 0.208 | 0.204 | 0.187 | 0.241
